Assay: molar heat capacity at constant pressure; mn = molality of the nth substance listed, in mol/kg
Settings: 350 kPa, Liquid

O=[N+]([O-])[O-].O=[N+]([O-])[O-].[Mg+2] [magnesium nitrate] + O
molar heat capacity at constant pressure [J/K/mol]
Settings | m1 = 0.0228 | m1 = 0.0567 | m1 = 0.1086 | m1 = 0.2145 | m1 = 0.3197 | m1 = 0.4749 | m1 = 0.6211 | m1 = 0.811 | m1 = 1.014
338.15 K | 75.34 | 75.24 | 75.12 | 74.91 | 74.72 | 74.48 | 74.3 | 74.1 | 73.95
343.15 K | 75.39 | 75.3 | 75.18 | 74.96 | 74.78 | 74.54 | 74.36 | 74.16 | 74.02
348.15 K | 75.46 | 75.36 | 75.24 | 75.02 | 74.84 | 74.6 | 74.42 | 74.22 | 74.08
353.15 K | 75.53 | 75.43 | 75.31 | 75.09 | 74.9 | 74.66 | 74.48 | 74.28 | 74.14
358.15 K | 75.61 | 75.51 | 75.38 | 75.16 | 74.97 | 74.73 | 74.55 | 74.35 | 74.2
363.15 K | 75.69 | 75.59 | 75.46 | 75.24 | 75.04 | 74.8 | 74.61 | 74.42 | 74.27
368.15 K | 75.78 | 75.68 | 75.55 | 75.32 | 75.12 | 74.87 | 74.68 | 74.48 | 74.33
373.15 K | 75.88 | 75.78 | 75.64 | 75.4 | 75.21 | 74.95 | 74.76 | 74.55 | 74.4
378.15 K | 75.99 | 75.88 | 75.74 | 75.5 | 75.32 | 75.05 | 74.83 | 74.63 | 74.47
383.15 K | 76.11 | 76 | 75.85 | 75.6 | 75.42 | 75.14 | 74.92 | 74.71 | 74.55
388.15 K | 76.24 | 76.12 | 75.97 | 75.7 | 75.52 | 75.24 | 75.03 | 74.79 | 74.63
393.15 K | 76.38 | 76.25 | 76.09 | 75.82 | 75.63 | 75.34 | 75.15 | 74.89 | 74.73
